Blank lines part the entries; values can stand above or below the molecule they belong to.
How the values were obtained:
[1] = Liver, lung, kidney and plasma distribution of radiolabeled (tritiated) galactomannan after single intravenous injection; format: in vivo, male NCr-nu athymic nude mice; conditions: for μCi of 3H-galactomannan per 1 g of kidney / μCi of 3H-galactomannan per 1 g of liver / μCi of 3H-galactomannan per 1 g of lungs / μCi of 3H-galactomannan per kidney, total / μCi of 3H-galactomannan per lungs, total / μCi of 3H-galactomannan per mL of plasma / μCi of 3H-galactomannan per liver, total: 6 or 60 mg/kg i.v., pooled; for μCi of 3H-galactomannan per liver, total: average of four animals
Source text: Twelve male NCr-nu athymic nude mice (Charles Rivers Laboratories, Raleigh, N.C.) were acclimated in the laboratory one week prior to experimentation. The animals were housed in microisolator cages, four per cage, and using a 12-hour light/dark cycle. All animals received sterilized tap water and sterile rodent food ad libitum. The animals were observed daily and clinical signs were noted. The mice were healthy and had not been previously used in other experimental procedures.
Tritiation of the galactomannan was performed as follows. 12.8 mg of the galactomannan was dissolved in 2.0 mL of water and exposed to 25 Curies of tritium gas in the presence of Pd/BaSO4 catalyst (120 mg, totally insoluble in water). After one hour the gas supply was removed, the catalyst was filtered away, and the aqueous solution of the galactomannan was evaporated to dryness repeatedly (four-fold, adding water), until no labile tritium was found. Total yield of the labeled galactomannan was 3.8 mCi, specific radioactivity was […].
All twelve mice were given a single intravenous injection of cold or tritiated galactomannan (either 6 or 60 mg/kg) on the same day. Non-labeled galactomannan was formulated in saline, and tritiated galactomannan was added to the solution so that each animal received 10 μCi of radioactivity. All dosing solutions (100 μL each) were counted in duplicate. Six mice were injected with 6 mg/kg solution, and six mice—with 60 mg/kg solution.
Two mice from each group were bled at 1, 6, and 24 hrs after injection, and plasma was prepared. Animals were then sacrificed; livers, kidneys and lungs were collected, weighed and flash-frozen for further analysis.
After weighing, livers were dissolved in 10 mL of Soluene 350 and incubated first for 4 hrs at 50° C., and at room temperature, until tissues were solubilized. One mL of the resulting solution was counted in a scintillation counter as a single sample. Based on tissue weight and the sample volume, the number of μCi of tritiated galactomannan per gram of tissue was calculated.
Kidneys were treated in the same manner, but dissolved in two mL of Soluene. After the tissue was solubilized at room temperature, 15 mL of Safety Solve scintillation fluid was added and samples were incubated overnight. Five mL of the resulting solution were diluted in 15 mL of Safety Solve and counted in a scintillation counter as a single sample. Lungs were treated in the same manner but dissolved in one mL of Soluene. Plasma samples (50 μL each) were placed direct into Safety Solve and counted as a single sample.
The statistical evaluation was based on experiments to trace and quantify the labeled galactomannan in organs/tissues (liver, kidneys, lung, and plasma). Six mice were treated with galactomannan at 60 mg/kg with each of 2 mice sacrificed at 1, 6, and 24 hours; six mice were treated with galactomannan at 6 mg/kg with each of 2 mice sacrificed at 1, 6, and 24 hours, as described above. The percentages of ^3H-galactomannan recovered per organ (μCi/gram) was used for analyses; plasma outcome (μCi/ml) was counted from the entire sample.
The assessment of radiolabel uptake was challenging with only two mice per treatment-sacrifice time combination and occasional outliers. To address the number of mice per group, pooling tests were performed for the two galactomannan treatment groups; this would potentially increase sample size per group to four. To address possible outliers, all outcomes for each individual mouse was visually compared to the other mice in the series-treatment-time combination; the four possible mice outcomes were considered in this evaluation since any sigma-based rule would have excluded none or both observations if applied separately to the two different series.
SAS (Version 6.12, Cary, N.C.) was used for all analyses. PROC ANOVA was used for pooling tests, while […] was used to estimate means and standard deviations.
Overall, the data in Table 1 are average for four animals.

[2] = after 24 hrs; cited from earlier work

increase of the amount of bound galactomannan ([1]; 60 mg/kg versus 6 mg/kg (10-times higher dose)): 10 fold
μCi of 3H-galactomannan per 1 g of kidney ([1]; 1 hr after injection): 0.302 μCi/gram
μCi of 3H-galactomannan per 1 g of liver ([1]; 1 hr after injection): 0.219 μCi/gram
μCi of 3H-galactomannan per 1 g of lungs ([1]; 1 hr after injection): 0.117 μCi/gram
μCi of 3H-galactomannan per kidney, total ([1]; 1 hr after injection): 0.120 μCi
μCi of 3H-galactomannan per lungs, total ([1]; 1 hr after injection): 0.019 μCi
μCi of 3H-galactomannan per mL of plasma ([1]; 1 hr after injection): 0.201 μCi/ml
μCi of 3H-galactomannan per liver, total ([1]; 1 hr after injection): 0.262 μCi
μCi of 3H-galactomannan per 1 g of kidney ([1]; 6 hr after injection): 0.131 μCi/gram
μCi of 3H-galactomannan per 1 g of liver ([1]; 6 hr after injection): 0.146 μCi/gram
μCi of 3H-galactomannan per 1 g of lungs ([1]; 6 hr after injection): 0.063 μCi/gram
μCi of 3H-galactomannan per kidney, total ([1]; 6 hr after injection): 0.060 μCi
μCi of 3H-galactomannan per lungs, total ([1]; 6 hr after injection): 0.012 μCi
μCi of 3H-galactomannan per mL of plasma ([1]; 6 hr after injection): 0.095 μCi/ml
μCi of 3H-galactomannan per liver, total ([1]; 6 hr after injection): 0.196 μCi
μCi of 3H-galactomannan per 1 g of kidney ([1]; 24 hrs after injection): 0.087 μCi/gram
μCi of 3H-galactomannan per 1 g of liver ([1]; 24 hrs after injection): 0.129 μCi/gram
μCi of 3H-galactomannan per 1 g of lungs ([1]; 24 hrs after injection): 0.060 μCi/gram
μCi of 3H-galactomannan per kidney, total ([1]; 24 hrs after injection): 0.040 μCi
μCi of 3H-galactomannan per lungs, total ([1]; 24 hrs after injection): 0.011 μCi
μCi of 3H-galactomannan per mL of plasma ([1]; 24 hrs after injection): 0.106 μCi/ml
μCi of 3H-galactomannan per liver, total ([1]; 24 hrs after injection): 0.169 μCi
saturation of the binding to liver, kidney, lung, and plasma ([1]; between the 6 mg/kg and 60 mg/kg doses): did not reach saturation of the binding
share of the radioactivity detected at one hour after injection still present ([1]; liver, at 24 hours, average): more than 50%
share of the one-hour radioactivity detected ([1]; plasma, kidneys, and lungs, at 6 hours, average): approximately 50%
Molecule: galactomannan

Molecule: O=c1[nH]cc(F)c(=O)[nH]1 [5-fluorouracil]
clearance from the kidneys, eliminated to [2]: 3.8%
clearance from the liver, eliminated to [2]: 1.6%
clearance from the lungs, eliminated to [2]: 3.6%

— patent US20210008097A1, “Compositions Comprising Galactose-Pronged Polysaccharides” (Galectin Therapeutics, Inc., priority 2006, published 2021)
